Source: patent USRE32333E, “A-21978 Antibiotics and process for their production” (priority 1985, dated 1987)
Converted amounts (≈) assume the structure as drawn. “And” between values parts separate entries of the source, which are not always exact repeats. Equal entries are not always repeated. Where two headings read alike, the source gives them in different places.

What was measured:
Staphylococcus aureus [1] = assay: MIC, agar dilution (Table XV); assay type: cell-based
Description: (§1) ^1 MIC = minimum inhibitory concentration (μg/ml), agar dilution

Streptococcus pneumoniae [2] = assay: MIC, agar dilution (Table XV); assay type: cell-based
Description: as §1

Streptococcus pyogenes [3] = assay: MIC, agar dilution (Table XV); assay type: cell-based
Description: as §1

Staphylococcus aureus [4] = assay: Experimental bacterial infection in mice, ED50; assay type: in vivo; conditions: S. aureus infection, two doses, subcutaneous administration
Description: (§2) When two doses of test compound were administered to mice in illustrative infections, the activity observed as measured as an ED50 value [effective dose in mg/kg to protect fifty percent of the test animals: See Warren Wick, et al., J. Bacteriol, 81, 233-235 (1961)].

Streptococcus pneumoniae [5] = assay: Experimental bacterial infection in mice, ED50; assay type: in vivo; conditions: S. pneumoniae infection, two doses, subcutaneous administration
Description: as §2

Streptococcus pyogenes [6] = assay: Experimental bacterial infection in mice, ED50; assay type: in vivo; conditions: S. pyogenes infection, two doses
Description: as §2

[7] = tested on: A21978.6 (Streptomyces roseosporus NRRL 11379); assay: Antibiotic sensitivity of producing culture (sensitivity discs); assay type: cell-based; parameters: key: + = sensitive (zones of inhibition); - = resistant (no zones of inhibition); conditions: discs on seeded ISP #2 agar; erythromycin 15 μg, cephalothin 30 μg, lincomycin 2 μg, nystatin 100 units, polymyxin B 300 units, streptomycin 10 μg, tetracycline 30 μg, vancomycin 30 μg
Description: (§3) Temperature range, NaCl tolerance, pH range, and antibiotic sensitivity were done using ISP #2 agar medium. The range of temperatures were: 25°, 28°, 30°, 34°, 37°, 40°, 45°, 50° and 55° C. NaCl tolerance was measured by adding NaCl to the agar to equal: 0, 1, 2, 3, 4, 5, 6, 8, 10 and 12%. These were incubated at 30° C. The pH range was measured by adjusting the agar from pH 3.0 to 11.0 at increments of 1.0 pH units, just prior to pouring. Antibiotic sensitivity was determined using sensitivity discs padded onto seeded agar plates.

[8] = tested on: S. roseosporus (ISP 5122; ATCC 23958); assay: Antibiotic sensitivity of comparison culture (sensitivity discs); assay type: cell-based, Streptomyces roseosporus; parameters: key: + = sensitive (zones of inhibition); - = resistant (no zones of inhibition); conditions: discs on seeded ISP #2 agar; erythromycin 15 μg, cephalothin 30 μg, lincomycin 2 μg, nystatin 100 units, polymyxin B 300 units, streptomycin 10 μg, tetracycline 30 μg, vancomycin 30 μg
Description: as §3, with “plates. Streptomyces roseosporus ISP 5122; ATCC 23958” for “plates.”

[9] = tested on: Streptococcus faecalis (Guze); assay: Streptococcus faecalis descending rat pyelonephritis test; conditions: for Percent of Rats Cured: cure = kidney counts less than 10^2 per g; for Percent of Rats with a 4-Log Titer Decrease: once daily, kidney titer vs infected controls
[10] = tested on: Staphylococcus aureus 3055; assay: MIC, standard agar-dilution test (Table XI); assay type: cell-based; conditions: aerobic, S. aureus 3055, sodium salt form
[11] = tested on: Group D Streptococcus 282; assay: MIC, standard agar-dilution test (Table XI); assay type: cell-based; conditions: aerobic, sodium salt form
[12] = tested on: Streptococcus pyogenes C203; assay: MIC, standard agar-dilution test (Table XI); assay type: cell-based; conditions: aerobic, S. pyogenes C203, sodium salt form
[13] = tested on: Streptococcus pneumoniae Park I; assay: MIC, standard agar-dilution test (Table XI); assay type: cell-based; conditions: aerobic, S. pneumoniae Park I, sodium salt form
[14] = tested on: Viridans Streptococcus 9943; assay: MIC, standard agar-dilution test (Table XI); assay type: cell-based; conditions: aerobic, sodium salt form
[15] = tested on: Neisseria gonorrhoeae 111076-4; assay: MIC, standard agar-dilution test (Table XI); assay type: cell-based; conditions: aerobic, N. gonorrhoeae 111076-4, sodium salt form
[16] = tested on: Staphylococcus aureus 3055; assay: MIC, standard broth-dilution test (Table XII); assay type: cell-based; conditions: aerobic, S. aureus 3055
[17] = tested on: Group D Streptococcus 282; assay: MIC, standard broth-dilution test (Table XII); assay type: cell-based; conditions: aerobic
[18] = tested on: Streptococcus pyogenes C203; assay: MIC, standard broth-dilution test (Table XII); assay type: cell-based; conditions: aerobic, S. pyogenes C203
[19] = tested on: Streptococcus pneumoniae Park I; assay: MIC, standard broth-dilution test (Table XII); assay type: cell-based; conditions: aerobic, S. pneumoniae Park I
[20] = tested on: Viridans Streptococcus 9943; assay: MIC, standard broth-dilution test (Table XII); assay type: cell-based; conditions: aerobic
Staphylococcus aureus [21] = assay: MIC against clinical isolates, ICS agar-dilution (Table XIII); assay type: cell-based; conditions: 10 clinical isolates, bracket = number of isolates with this MIC or range
Actinomyces israelii = assay: MIC against anaerobic bacteria, standard agar-dilution (Table XIV); assay type: cell-based; conditions: anaerobe
Clostridium septicum = assay: as above; assay type: cell-based; conditions: anaerobe
Eubacterium aerofaciens = assay: as above; assay type: cell-based; conditions: anaerobe
[22] = tested on: Peptococcus asaccharolyticus; assay: as above; assay type: cell-based; conditions: anaerobe
Peptococcus prevoti = assay: as above; assay type: cell-based; conditions: anaerobe
[23] = tested on: Peptostreptococcus anaerobius; assay: as above; assay type: cell-based; conditions: anaerobe
[24] = tested on: Peptostreptococcus intermedius; assay: as above; assay type: cell-based; conditions: anaerobe
Propionibacterium acnes = assay: as above; assay type: cell-based; conditions: anaerobe
Bacteroides fragilis = assay: as above; assay type: cell-based; conditions: anaerobe
Fusobacterium symbiosum = assay: as above; assay type: cell-based; conditions: anaerobe
[25] = tested on: Fusobacterium necrophorum; assay: as above; assay type: cell-based; conditions: anaerobe
[26] = tested on: Streptococcus faecalis (Guze); assay: In vitro susceptibility (MIC) of the S. faecalis Guze strain; assay type: cell-based
Description: ^1 In vitro susceptibility of the S. faecalis Guze strain

[27] = Electrometric titration in 66% aqueous dimethylformamide; assay type: physicochemical; conditions: 66% DMF, Na salt forms; factors: two determinations
Clostridium perfringens = conditions: anaerobe, agar-dilution
[28] = Mouse
[29] = Rat, IV
Micrococcus luteus = assay: Paper-disc agar-diffusion bioassay; conditions: individual factors, Na salts

## CC[C@H]1OC(=O)[C@H](C)[C@@H](O[C@H]2C[C@@](C)(OC)[C@@H](O)[C@H](C)O2)[C@H](C)[C@@H](O[C@@H]2O[C@H](C)C[C@H](N(C)C)[C@H]2O)[C@](C)(O)C[C@@H](C)C(=O)[C@H](C)[C@@H](O)[C@]1(C)O [Erythromycin, reference compound]
Staphylococcus aureus [1]; read-out: MIC
  MIC: 0.13 µg/mL (≈ 0.177 µM)
Streptococcus pneumoniae [2]; read-out: MIC
  MIC: 0.5 µg/mL (≈ 0.681 µM)
Streptococcus pyogenes [3]; read-out: MIC
  MIC: 0.13 µg/mL (≈ 0.177 µM)
Staphylococcus aureus [4]; Staphylococcus aureus, sc, read-out: ED50
  ED50: 0.5 mg/kg
Streptococcus pneumoniae [5]; Streptococcus pneumoniae, sc, read-out: ED50
  ED50: 7.3 mg/kg
Streptococcus pyogenes [6]; Streptococcus pyogenes, sc, subcutaneous administration, read-out: ED50
  ED50: 0.64 mg/kg
[7]
  Antibiotic Sensitivity, A21978.6: +
[8]
  Antibiotic Sensitivity, S. roseosporus: +

## [H]/N=C(/N)N[C@H]1[C@H](O)[C@@H](O)[C@H](O[C@@H]2O[C@@H](C)[C@](O)(C=O)[C@H]2O[C@@H]2O[C@@H](CO)[C@H](O)[C@@H](O)[C@@H]2NC)[C@@H](N/C(N)=N\[H])[C@@H]1O [Streptomycin]
[7]
  Antibiotic Sensitivity, A21978.6: +
[8]
  Antibiotic Sensitivity, S. roseosporus: +

## CN(C)[C@@H]1C(O)=C(C(N)=O)C(=O)[C@@]2(O)C(O)=C3C(=O)c4c(O)cccc4[C@@](C)(O)[C@H]3C[C@@H]12 [Tetracycline]
[7]
  Antibiotic Sensitivity, A21978.6: +
[8]
  Antibiotic Sensitivity, S. roseosporus: +

## CN[C@H](CC(C)C)C(=O)N[C@H]1C(=O)N[C@@H](CC(N)=O)C(=O)N[C@H]2C(=O)N[C@H]3C(=O)N[C@H](C(=O)N[C@H](C(=O)O)c4cc(O)cc(O)c4-c4cc3ccc4O)[C@H](O)c3ccc(c(Cl)c3)Oc3cc2cc(c3O[C@@H]2O[C@H](CO)[C@@H](O)[C@H](O)[C@H]2O[C@H]2C[C@](C)(N)[C@H](O)[C@H](C)O2)Oc2ccc(cc2Cl)[C@H]1O [Vancomycin, reference compound]
[7]
  Antibiotic Sensitivity, A21978.6: +
[8]
  Antibiotic Sensitivity, S. roseosporus: +
[9]; 12.0 mg/kg x 7 subcutaneous
  Percent of Rats Cured: 33
  Percent of Rats with a 4-Log Titer Decrease: 55

## CC(=O)OCC1=C(C(=O)O)N2C(=O)[C@@H](NC(=O)Cc3cccs3)[C@H]2SC1 [Cephalothin]
[7]
  Antibiotic Sensitivity, A21978.6: +
[8]
  Antibiotic Sensitivity, S. roseosporus: +

## Polymyxin B
[7]
  Antibiotic Sensitivity, A21978.6: +
[8]
  Antibiotic Sensitivity, S. roseosporus: -

## CC(C)CCCCCCCCC(=O)NC(Cc1c[nH]c2ccccc12)C(=O)NC(CC(N)=O)C(=O)NC(CC(=O)O)C(=O)NC1C(=O)NCC(=O)NC(CCCN)C(=O)NC(CC(=O)O)C(=O)NC(C)C(=O)NC(CC(=O)O)C(=O)NCC(=O)NC(CO)C(=O)NC(C(C)CC(=O)O)C(=O)NC(CC(=O)c2ccccc2N)C(=O)OC1C (stereo not shown) [Factor C2]
[10]
  MIC: 0.13 µg/mL
[11]
  MIC: 0.25 µg/mL
[12]
  MIC: 0.13 µg/mL
[13]
  MIC: 0.25 µg/mL
[14]
  MIC: 1.0 µg/mL
[15]
  MIC: 4.0 µg/mL
[16]
  MIC: 0.5 µg/mL (≈ 0.303 µM)
[17]
  MIC: 1.0 µg/mL (≈ 0.607 µM)
[18]
  MIC: 0.25 µg/mL (≈ 0.152 µM)
[19]
  MIC: 1.0 µg/mL (≈ 0.607 µM)
[20]
  MIC: 16.0 µg/mL (≈ 9.7 µM)
Staphylococcus aureus [21]
  Minimum Inhibitory Concentration: 0.12 to 0.25 µg/mL
Actinomyces israelii
  MIC: 1.0 µg/mL (≈ 0.607 µM)
Clostridium septicum
  MIC: 1.0 µg/mL (≈ 0.607 µM)
Eubacterium aerofaciens
  MIC: 8 µg/mL (≈ 4.85 µM)
[22]
  MIC: 2 µg/mL (≈ 1.21 µM)
Peptococcus prevoti
  MIC: 1.0 µg/mL (≈ 0.607 µM)
[23]
  MIC: 1.0 µg/mL (≈ 0.607 µM)
[24]
  MIC: 1.0 µg/mL (≈ 0.607 µM)
Propionibacterium acnes
  MIC: 2 µg/mL (≈ 1.21 µM)
Bacteroides fragilis
  MIC: > 128 µg/mL
Fusobacterium symbiosum
  MIC: > 128 µg/mL
[25]
  MIC: 64 µg/mL (≈ 38.8 µM)
Staphylococcus aureus [1]
  MIC: 0.13 µg/mL (≈ 0.0788 µM)
Streptococcus pneumoniae [2]
  MIC: 0.13 µg/mL (≈ 0.0788 µM)
Streptococcus pyogenes [3]
  MIC: 0.13 µg/mL (≈ 0.0788 µM)
Staphylococcus aureus [4]
  ED50: 0.16 mg/kg
Streptococcus pneumoniae [5]
  ED50: 0.14 mg/kg
Streptococcus pyogenes [6]; oral administration
  ED50: 59 mg/kg
Streptococcus pyogenes [6]; subcutaneous administration
  ED50: 0.032 mg/kg
[26]
  MIC: 0.25 µg/mL (≈ 0.152 µM)
[27]
  pKa Values (first group): 5.8 and 5.93
  pKa Values (second group): 7.6 and 7.63
Clostridium perfringens
  MIC: 8 µg/mL (≈ 4.85 µM)
[28]; IV
  LD50: 150 to 250 mg/kg
[28]; SC
  LD50: 175 mg/kg
[29]
  LD50: 204 ± 17 mg/kg
Micrococcus luteus
  Bioassay (Micrococcus luteus): 1390 units/mg
[9]; 1.0 mg/kg x 7 subcutaneous
  Percent of Rats Cured: 89
  Percent of Rats with a 4-Log Titer Decrease: 100

## CCC[C@@H]1C[C@@H](C(=O)N[C@@H]([C@H]2O[C@H](SC)[C@H](O)[C@@H](O)[C@H]2O)[C@@H](C)O)N(C)C1 [Lincomycin]
[7]
  Antibiotic Sensitivity, A21978.6: -
[8]
  Antibiotic Sensitivity, S. roseosporus: -

## C[C@@H]1[C@H](O)[C@@H](C)/C=C/C=C/CC/C=C/C=C/C=C/C=C/C(O[C@H]2O[C@H](C)[C@@H](O)[C@H](N)[C@@H]2O)CC2O[C@](O)(CC(O)C(O)CCC(O)CC(O)CC(O)CC(=O)O[C@H]1C)CC(O)C2C(=O)O (stereo partly shown) [Nystatin]
[7]
  Antibiotic Sensitivity, A21978.6: -
[8]
  Antibiotic Sensitivity, S. roseosporus: -
